According to patent publication US20050245471A1, “Combination products for use in antitumoral treatment” (priority 2002, published 2005):

Test system: CSF-1
Experiment: Quantification of CSF-1 secreted by NS2T2A1 cells transfected with oligonucleotides (ELISA)
Type: cell-based, human
Settings: 250 nM oligonucleotide with 2.4 μg/ml cytofectin GS-3815, ELISA of culture medium 24 h after beginning of transfection, relative to non-transfected cell line
Description: Line NS2T2A1 is a line of cells from the human breast (Ma et al., Int. J. Cancer, 1998, 78: 112-119) obtained by mammoplasty, transformed by SV40. This line secretes CSF-1 linearly as a function of the cell growth.
The cells were cultivated in medium M5 (Gibco, France) complemented with 5% of -horse serum as described by Ma et al. (Int. J. Cancer, 1998, 78:112-119). Seeding was done in 6 well plates at a concentration, of 5×10^5 cells/ml/well. Transfection by oligonucleotides was done 24 h later, when the cells were in the exponential growth phase and they had reached 60% to 80% of confluence.
Transfection by oligonucleotides was done using cytofectin GS-3815 (Glen research, Sterling. Va.). Oligonucleotides and cytofectin were diluted separately in polystyrene tubes with the opti-MEM medium (Gibco, France), and the cytofectin was mixed with an equal volume of diluted oligonucleotides. The mix was left for 15 minutes at ambient temperature to enable the formation of oligonucleotide/cytofectin complexes. Finally, the M5 medium was added to the solution to obtain final concentrations equal to 2.4 μg/ml of cytofectin and 250 nM of oligonucleotides. All transfections were done in the M5 medium and in a final volume of 1 ml. Oligonucleotide/cytofectin complexes were left in contact with cells for 24 h. All steps described above were done under sterile conditions.
All experiments were done in triplicate for each concentration of oligonucleotides.
The quantity of CSF-1 secreted in the culture medium of NS2T2A1 cells was-measured by an ELISA test, 24 h after the beginning of the transfection, referring strictly to the protocol described by the supplier (R&D systems, Europe Ltd, UK). The results are expressed as a percentage of CSF-1 expressed by the transfected cells with respect to the CSF-1 expressed by a non-transfected cell line.

SEQ ID No. 3: phosphorothioate oligonucleotide with pdU/pdC base substitutions, hybridising region 284-301 of SEQ ID No. 1 (CSF-1) (UCUGGAGCAGGUUAAU; listed as RNA, chemistry not fully specified)
Percentage of CSF-1 expressed: 39%

SEQ ID No. 4: phosphorothioate oligonucleotide with pdU/pdC base substitutions, hybridising region 341-358 of SEQ ID No. 1 (CSF-1) (ACACGAUGGAAUUCUUCC; listed as RNA, chemistry not fully specified)
Percentage of CSF-1 expressed: 50%

SEQ ID No. 5: phosphorothioate oligonucleotide with pdU/pdC base substitutions, hybridising region 409-426 of SEQ ID No. 1 (CSF-1) (UUGUGGCGGUUAGGGUAG; listed as RNA, chemistry not fully specified)
Percentage of CSF-1 expressed: 90%

SEQ ID No. 2: phosphorothioate oligonucleotide with pdU/pdC base substitutions, hybridising region 135-152 of SEQ ID No. 1 (CSF-1) (GGGAGGGUGCUGUACCGA; listed as RNA, chemistry not fully specified)
Percentage of CSF-1 expressed: 70%
